From BindingDB's records for doi:10.1124/jpet.105.087809 (Universit&Aagrove, 2005)

Columns and labels:
[1] = biological target: T1, Alpha-1B adrenergic receptor (Homo sapiens, UniProt P35368)
T1 sequence (P35368 whole entry): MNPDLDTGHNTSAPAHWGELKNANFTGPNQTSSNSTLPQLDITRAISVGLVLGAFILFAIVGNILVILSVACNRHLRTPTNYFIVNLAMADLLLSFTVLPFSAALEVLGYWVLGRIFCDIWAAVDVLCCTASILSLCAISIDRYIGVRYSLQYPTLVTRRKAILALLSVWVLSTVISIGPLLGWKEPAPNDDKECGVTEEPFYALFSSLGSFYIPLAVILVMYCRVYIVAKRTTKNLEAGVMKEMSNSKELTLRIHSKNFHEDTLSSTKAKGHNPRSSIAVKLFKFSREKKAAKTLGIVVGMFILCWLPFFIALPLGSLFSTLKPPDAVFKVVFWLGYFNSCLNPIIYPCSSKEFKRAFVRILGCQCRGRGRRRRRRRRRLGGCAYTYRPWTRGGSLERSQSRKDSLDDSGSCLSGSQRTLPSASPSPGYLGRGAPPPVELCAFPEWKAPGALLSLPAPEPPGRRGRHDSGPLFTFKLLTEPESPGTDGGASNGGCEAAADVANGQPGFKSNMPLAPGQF

D(2) dopamine receptor = D(2) dopamine receptor (Rattus norvegicus, UniProt P61169)
[2] = biological target: T2, Alpha-2C adrenergic receptor (Rattus norvegicus, UniProt P22086)
T2 sequence (P22086 whole entry): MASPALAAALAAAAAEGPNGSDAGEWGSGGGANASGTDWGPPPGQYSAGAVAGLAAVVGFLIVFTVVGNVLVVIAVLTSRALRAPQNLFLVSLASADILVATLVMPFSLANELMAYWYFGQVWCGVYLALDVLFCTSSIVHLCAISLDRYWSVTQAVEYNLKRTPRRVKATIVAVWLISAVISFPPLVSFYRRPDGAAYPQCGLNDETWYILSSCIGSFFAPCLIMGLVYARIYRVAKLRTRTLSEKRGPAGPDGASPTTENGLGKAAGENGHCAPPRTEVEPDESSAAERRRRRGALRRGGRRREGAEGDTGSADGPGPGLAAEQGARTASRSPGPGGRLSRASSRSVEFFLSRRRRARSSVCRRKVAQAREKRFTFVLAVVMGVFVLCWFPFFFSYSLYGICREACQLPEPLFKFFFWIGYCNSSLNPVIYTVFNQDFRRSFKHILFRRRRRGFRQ

[3] = biological target: T3, Alpha-1A adrenergic receptor (Homo sapiens, UniProt P35348)
T3 sequence (P35348 whole entry): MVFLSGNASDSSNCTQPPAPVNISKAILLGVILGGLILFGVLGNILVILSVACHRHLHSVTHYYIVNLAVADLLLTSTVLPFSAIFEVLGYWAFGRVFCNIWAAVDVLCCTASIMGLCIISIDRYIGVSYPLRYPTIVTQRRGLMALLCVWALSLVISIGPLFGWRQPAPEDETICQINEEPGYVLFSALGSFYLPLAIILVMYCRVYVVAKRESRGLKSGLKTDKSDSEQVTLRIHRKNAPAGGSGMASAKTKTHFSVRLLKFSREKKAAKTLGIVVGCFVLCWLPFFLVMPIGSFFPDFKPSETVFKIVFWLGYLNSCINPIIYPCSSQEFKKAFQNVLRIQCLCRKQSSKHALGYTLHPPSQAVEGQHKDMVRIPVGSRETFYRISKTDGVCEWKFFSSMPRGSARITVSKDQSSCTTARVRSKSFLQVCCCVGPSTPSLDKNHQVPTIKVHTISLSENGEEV

[4] = biological target: T4, Alpha-1D adrenergic receptor (Homo sapiens, UniProt P25100)
T4 sequence (P25100 whole entry): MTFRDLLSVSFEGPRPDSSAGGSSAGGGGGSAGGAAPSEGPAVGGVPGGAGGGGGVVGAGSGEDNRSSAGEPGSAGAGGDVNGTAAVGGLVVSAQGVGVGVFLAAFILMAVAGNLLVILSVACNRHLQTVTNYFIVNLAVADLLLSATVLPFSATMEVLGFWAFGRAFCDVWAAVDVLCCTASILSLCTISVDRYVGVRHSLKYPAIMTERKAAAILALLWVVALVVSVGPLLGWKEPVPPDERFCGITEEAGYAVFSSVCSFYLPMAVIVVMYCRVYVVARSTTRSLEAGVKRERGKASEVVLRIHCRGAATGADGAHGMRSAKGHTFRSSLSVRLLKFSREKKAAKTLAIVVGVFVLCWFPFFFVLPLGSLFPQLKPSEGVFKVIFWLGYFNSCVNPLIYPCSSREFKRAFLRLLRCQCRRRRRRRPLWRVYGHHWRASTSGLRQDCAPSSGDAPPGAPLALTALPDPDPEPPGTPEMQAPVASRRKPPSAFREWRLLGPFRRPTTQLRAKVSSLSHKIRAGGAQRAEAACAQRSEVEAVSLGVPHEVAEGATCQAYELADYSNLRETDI

[5] = biological target: T5, 5-hydroxytryptamine receptor 1A (Homo sapiens, UniProt P08908)
T5 sequence (P08908 whole entry): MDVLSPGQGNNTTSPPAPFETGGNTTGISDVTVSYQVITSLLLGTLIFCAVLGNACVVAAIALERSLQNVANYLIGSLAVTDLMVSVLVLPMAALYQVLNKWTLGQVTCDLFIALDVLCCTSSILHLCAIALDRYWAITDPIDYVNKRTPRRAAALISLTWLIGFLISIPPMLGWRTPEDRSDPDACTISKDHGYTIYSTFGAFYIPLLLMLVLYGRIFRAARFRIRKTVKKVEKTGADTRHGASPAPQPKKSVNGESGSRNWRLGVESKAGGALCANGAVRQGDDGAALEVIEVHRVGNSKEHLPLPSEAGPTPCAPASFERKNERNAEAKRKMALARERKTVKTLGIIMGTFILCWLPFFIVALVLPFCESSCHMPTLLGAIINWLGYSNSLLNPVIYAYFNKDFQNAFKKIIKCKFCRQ

Sequence of D(2) dopamine receptor (P61169 whole entry): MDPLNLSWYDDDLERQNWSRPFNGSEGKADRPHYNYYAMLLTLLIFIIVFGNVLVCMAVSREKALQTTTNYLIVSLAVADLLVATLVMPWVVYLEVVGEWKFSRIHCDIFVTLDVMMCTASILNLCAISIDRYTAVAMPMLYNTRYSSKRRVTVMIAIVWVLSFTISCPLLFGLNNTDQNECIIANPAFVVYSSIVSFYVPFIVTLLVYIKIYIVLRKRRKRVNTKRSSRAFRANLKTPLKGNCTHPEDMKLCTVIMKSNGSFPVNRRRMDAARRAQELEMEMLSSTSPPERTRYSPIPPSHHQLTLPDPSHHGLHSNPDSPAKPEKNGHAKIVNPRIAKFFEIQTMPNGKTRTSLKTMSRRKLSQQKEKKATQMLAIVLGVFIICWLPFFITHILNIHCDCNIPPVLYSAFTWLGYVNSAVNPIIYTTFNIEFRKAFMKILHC

Ki [1] [nM]	Ki (D(2) dopamine receptor) [nM]	Ki [2] [nM]	Ki [3] [nM]	Ki [4] [nM]	Ki [5] [nM]	Compound
	871	> 10000				COc1ccccc1N1CCN(CCN(C(=O)C2CCCCC2)c2ccccc2[N+](=O)[O-])CC1 [N-[2-[4-(2-methoxyphenyl)-1-piperazinyl]-ethyl]-N-(2-nitrophenyl)cyclohexanecarboxamide]
1.02	316	> 10000	5.13	4.17	0.89	COc1ccccc1N1CCN(CCN(C(=O)C2CCCCC2)c2ccccc2OC)CC1 [Rec 27/0074]
646	4790	> 10000	224	724	1.05	COc1ccc(Br)c(N2CCN(CCN(C(=O)C3CCCCC3)c3ccccc3OC(F)(F)F)CC2)c1 [Rec 27/0224]

Compound	Ki [1] [nM]	Ki (D(2) dopamine receptor) [nM]	Ki [2] [nM]	Ki [3] [nM]	Ki [4] [nM]	Ki [5] [nM]
COc1ccccc1N1CCN(CCN(C(=O)C2CCCCC2)c2ccccn2)CC1	661	347	1260			
O=C(CCCN1CCC2(CC1)C(=O)NCN2c1ccccc1)c1ccc(F)cc1 [8-[4-(4-fluorophenyl)-4-oxidanylidene-butyl]-1-phenyl-1,3,8-triazaspiro[4.5]decan-4-one]				20.4	8.32	
